# Source: patent US20080176882A1, “SALTS OF 3-(3-AMINO-2-(R)-HYDROXY-PROPYL)-1-(4-FLUORO-PHENYL)-8-(8-METHYL-NAPHTHALEN-1-YLMETHYL)-1,3,8-TRIAZA-SPIRO[4.5]DECAN-4-ONE” (priority 2006, published 2008)
# Where a name gives a salt, the structure may show the parent alone.
# Experiment: DVS (Differential Vapor Sorption) measurements of hygroscopicity
# Format: physicochemical
# Details: salt forms of the compound of formula (Is)
# Source text: In an embodiment, the present invention is directed to a hydrochloride salt of the compound of formula (Is). In another embodiment of the present invention, the hydrochloride salt of the compound of formula (Is) is mono-hydrochloride or di-hydrochloride salt of the compound of formula (Is). In another embodiment of the present invention, the mono-hydrochloride and di-hydrochloride salts of the compound of formula (Is) are crystalline. DVS measurements completed on the mono-hydrochloride and di-hydrochloride salts of the compound of formula (Is) indicate that both of these salt forms are hygroscopic.
smiles,measurement,value
"Cc1cccc2cccc(CN3CCC4(CC3)C(=O)N(C[C@H](O)CN)CN4c3ccc(F)cc3)c12 [mono-hydrochloride, 3-(3-amino-2-(R)-hydroxy-propyl)-1-(4-fluoro-phenyl)-8-(8-methyl-naphthalen-1-ylmethyl)-1,3,8-triaza-spiro[4.5]decan-4-one]",hygroscopicity by DVS measurements,hygroscopic
